Results: patent US7250442B2, “Dihydroindol-2-one derivatives as steroid hormone nuclear receptor modulators” (Eli Lilly and Company, priority 2003, dated 2007)

Target: T1, glucocorticoid receptor (Homo sapiens, UniProt P04150)
T1 construct: host or cells: A549 human lung epithelial cells (sonicated cell extract)
T1 sequence (P04150 1-777): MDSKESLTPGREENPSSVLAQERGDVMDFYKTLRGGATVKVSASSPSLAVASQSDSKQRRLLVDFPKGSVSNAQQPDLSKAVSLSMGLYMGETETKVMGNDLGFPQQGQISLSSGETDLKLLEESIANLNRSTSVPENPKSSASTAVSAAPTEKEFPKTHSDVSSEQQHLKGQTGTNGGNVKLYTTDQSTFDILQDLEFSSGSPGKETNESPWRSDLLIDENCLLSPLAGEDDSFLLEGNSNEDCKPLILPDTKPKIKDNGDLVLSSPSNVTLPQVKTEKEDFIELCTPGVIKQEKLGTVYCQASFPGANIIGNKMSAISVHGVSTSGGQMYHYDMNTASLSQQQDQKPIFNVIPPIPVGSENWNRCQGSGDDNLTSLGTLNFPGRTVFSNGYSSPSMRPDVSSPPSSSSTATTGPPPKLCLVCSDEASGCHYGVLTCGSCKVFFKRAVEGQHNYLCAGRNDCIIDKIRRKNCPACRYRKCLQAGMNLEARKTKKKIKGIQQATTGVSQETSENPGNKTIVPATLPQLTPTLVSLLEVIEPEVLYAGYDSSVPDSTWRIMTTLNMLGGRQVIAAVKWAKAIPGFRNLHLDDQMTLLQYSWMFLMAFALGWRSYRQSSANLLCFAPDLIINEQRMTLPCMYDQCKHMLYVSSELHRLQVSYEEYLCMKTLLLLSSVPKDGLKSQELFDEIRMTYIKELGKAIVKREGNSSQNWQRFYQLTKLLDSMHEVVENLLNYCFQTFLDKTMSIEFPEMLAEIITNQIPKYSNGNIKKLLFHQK
Test: Glucocorticoid Receptor Binding Assay ([3H]-dexamethasone displacement, A549 cell extract)
Settings: A549 human lung epithelial cell extract, 1.86 nM [3H]-dexamethasone; read-out: GR Ki
Protocol: Glucocorticoid Receptor Binding Assay:
A549 human lung epithelial cells (ATCC) are grown at a scale where gram quantity cell pellets are obtained. Harvested cell pellets are washed twice in cold phosphate buffered saline, centrifuged, and resuspended in cold assay binding buffer. The assay binding buffer consists of 10% glycerol, 50 mM Tris-HCl (pH7.2), 75 mM sodium chloride, 1.5 mM magnesium chloride, 1.5 mM EDTA, and 10 mM sodium molybdate. Cell suspensions were lysed via sonication, centrifuged, and the “extract” supernatant is snap frozen and stored at −80C. until needed.
GR binding assays are performed in a final volume of 140 ul containing 50-200 ug of A549 cell extract and 1.86 nM [^3H]-dexamethasone (Amersham) plus varying concentrations of test compound or vehicle. Briefly, assays are prepared at RT in 96-well Fisher 3356 plates, each well containing 100 ul of A549 cell extract, 20 ul of [^3H]-dexamethasone, and 20 ul of test compound/vehicle. Incubations are carried out at 4 degrees celsius for 16 hours. After incubation, 70 ul of 3× dextran-coated charcoal solution is added to each reaction, mixed, and incubated for 8 minutes at RT. 3×-dextran-coated charcoal solution consists of 250 ml assay binding buffer, 3.75 g Norit A charcoal (Sigma), and 1.25 g dextran T-70 (Amersham). Charcoal/unbound radioligand complexes are removed by centrifugation of the plate and 140 ul of supernatant from each well is transferred to another 96 well Optiplate (Packard Instruments). 200 ul of Microscint-20 scinillant (Packard Instruments) is added to each well and amount of receptor bound radioligand is determined using Packard Instruments TopCount instrument.
IC50 values, defined as the concentration of test compound required to decrease [^3H]-dexamethasone binding by 50%, are then determined. Ki values for each respective test compound can then be calculated by application of the Cheng-Prusoff equation as described in Cheng et al., Relationship Between The Inhibition Constant (Ki) and The Concentration of Inhibitor Which Causes 50% Inhibition (IC50) of an Enzymatic Reaction, Biochem. Pharmacol., 22: 3099-31088; (1973).

SMILES | Ki [nM]
COc1ccc(-c2nc(CN3C(=O)C(c4cc(C)c(O)c(C)c4)(c4cc(C)c(O)c(C)c4)c4cc(C)ccc43)cs2)cc1 [Example 95, 3,3-Bis-(4-hydroxy-3,5-dimethyl-phenyl)-1-[2-(4-methoxy-phenyl)-thiazol-4-ylmethyl]-5-methyl-1,3-dihydro-indol-2-one] | ≤ 1000
Cc1cc(C2(c3cc(C)c(O)c(C)c3)C(=O)N(Cc3ccc4ccccc4n3)c3ccccc32)cc(C)c1O [Example 97, 3,3-Bis-(4-hydroxy-3,5-dimethyl-phenyl)-1-quinolin-2-ylmethyl-1,3-dihydro-indol-2-one] | ≤ 500
COc1ccc(-c2nc(CN3C(=O)C(c4cc(C)c(O)c(C)c4)(c4cc(C)c(O)c(C)c4)c4ccccc43)no2)cc1 [Example 99, 3,3-Bis-(4-hydroxy-3,5-dimethyl-phenyl)-1-[5-(4-methoxy-phenyl)-[1,2,4]oxadiazol-3-ylmethyl]-1,3-dihydro-indol-2-one] | ≤ 1000
C#CCN1C(=O)C(c2cc(C)c(O)c(C)c2)(c2cc(C)c(O)c(C)c2)c2ccccc21 [Example 101, 3,3-Bis-(4-hydroxy-3,5-dimethyl-phenyl)-1-prop-2-ynyl-1,3-dihydro-indol-2-one] | ≤ 500
CC(C)=CCN1C(=O)C(c2cc(C)c(O)c(C)c2)(c2cc(C)c(O)c(C)c2)c2ccccc21 [Example 102, 3,3-Bis-(4-hydroxy-3,5-dimethyl-phenyl)-1-(3-methyl-but-2-enyl)-1,3-dihydro-indol-2-one] | ≤ 500
C=C(C)CN1C(=O)C(c2cc(C)c(O)c(C)c2)(c2cc(C)c(O)c(C)c2)c2ccccc21 [Example 106, 3,3-Bis-(4-hydroxy-3,5-dimethyl-phenyl)-1-(2-methyl-allyl)-1,3-dihydro-indol-2-one] | ≤ 500
COC(=O)c1ccc(CN2C(=O)C(c3cc(C)c(O)c(C)c3)(c3cc(C)c(O)c(C)c3)c3ccccc32)o1 [Example 108, 5-[3,3-Bis-(4-hydroxy-3,5-dimethyl-phenyl)-2-oxo-2,3-dihydro-indol-1-ylmethyl]-furan-2-carboxylic acid methyl ester] | ≤ 500
CCOC(=O)CN1C(=O)C(c2cc(C)c(O)c(C)c2)(c2cc(C)c(O)c(C)c2)c2ccccc21 [Example 109, [3,3-Bis-(4-hydroxy-3,5-dimethyl-phenyl)-2-oxo-2,3-dihydro-indol-1-yl]-acetic acid ethyl ester] | ≤ 500
Cc1cc(C2(c3cc(C)c(O)c(C)c3)C(=O)N(CCC3CCCCC3)c3ccccc32)cc(C)c1O [Example 110, 1-(2-Cyclohexyl-ethyl)-3,3-bis-(4-hydroxy-3,5-dimethyl-phenyl)-1,3-dihydro-indol-2-one] | ≤ 500
Cc1cc(C2(c3cc(C)c(O)c(C)c3)C(=O)N(Cc3ccncc3)c3ccccc32)cc(C)c1O [Example 111, 3,3-Bis-(4-hydroxy-3,5-dimethyl-phenyl)-1-pyridin-4-ylmethyl-1,3-dihydro-indol-2-one] | ≤ 500
Cc1cc(C2(c3cc(C)c(O)c(C)c3)C(=O)N(Cc3c(Cl)cccc3Cl)c3ccccc32)cc(C)c1O [Example 113, 1-(2,6-Dichloro-benzyl)-3,3-bis-(4-hydroxy-3,5-dimethyl-phenyl)-1,3-dihydro-indol-2-one] | ≤ 500
Cc1cc(C2(c3cc(C)c(O)c(C)c3)C(=O)N(Cc3c(F)cccc3F)c3ccccc32)cc(C)c1O [Example 115, 1-(2,6-Difluoro-benzyl)-3,3-bis-(4-hydroxy-3,5-dimethyl-phenyl)-1,3-dihydro-indol-2-one] | ≤ 500
Cc1cc(C2(c3cc(C)c(O)c(C)c3)C(=O)N(Cc3ccccc3N)c3ccccc32)cc(C)c1O [Example 119, 1-(2-Amino-benzyl)-3,3-bis-(4-hydroxy-3,5-dimethyl-phenyl)-1,3-dihydro-indol-2-one] | ≤ 500
Cc1ccc(N2C(=O)C(c3cc(C)c(O)c(C)c3)(c3cc(C)c(O)c(C)c3)c3ccccc32)cc1 [Example 125, 3,3-Bis-(4-hydroxy-3,5-dimethyl-phenyl)-1-p-tolyl-1,3-dihydro-indol-2-one] | ≤ 500
Cc1cc(C2(c3cc(C)c(O)c(C)c3)C(=O)N(c3ccccc3)c3ccccc32)cc(C)c1O [Example 126, 3,3-Bis-(4-hydroxy-3,5-dimethyl-phenyl)-1-phenyl-1,3-dihydro-indol-2-one] | ≤ 500
Cc1cc(C2(c3cc(C)c(O)c(C)c3)C(=O)N(c3cccc(C(F)(F)F)c3)c3ccccc32)cc(C)c1O [Example 127, 3,3-Bis-(4-hydroxy-3,5-dimethyl-phenyl)-1-(3-trifluoromethyl-phenyl)-1,3-dihydro-indol-2-one] | ≤ 500
Cc1cc(C2(c3cc(C)c(O)c(C)c3)C(=O)N(c3ccccc3Cl)c3ccccc32)cc(C)c1O [Example 129, 1-(2-Chloro-phenyl)-3,3-bis-(4-hydroxy-3,5-dimethyl-phenyl)-1,3-dihydro-indol-2-one] | ≤ 500
Cc1cc(C2(c3cc(C)c(O)c(C)c3)C(=O)N(c3cccc(F)c3)c3ccccc32)cc(C)c1O [Example 130, 1-(3-Fluoro-phenyl)-3,3-bis-(4-hydroxy-3,5-dimethyl-phenyl)-1,3-dihydro-indol-2-one] | ≤ 500
Cc1cc(C2(c3cc(C)c(O)c(C)c3)C(=O)N(c3ccc(C(F)(F)F)cc3)c3ccccc32)cc(C)c1O [Example 131, 3,3-Bis-(4-hydroxy-3,5-dimethyl-phenyl)-1-(4-trifluoromethyl-phenyl)-1,3-dihydro-indol-2-one] | ≤ 500
Cc1ccccc1N1C(=O)C(c2cc(C)c(O)c(C)c2)(c2cc(C)c(O)c(C)c2)c2ccccc21 [Example 132, 3,3-Bis-(4-hydroxy-3,5-dimethyl-phenyl)-1-o-tolyl-1,3-dihydro-indo 1-2-one] | ≤ 500
Cc1cccc(N2C(=O)C(c3cc(C)c(O)c(C)c3)(c3cc(C)c(O)c(C)c3)c3ccccc32)c1 [Example 133, 3,3-Bis-(4-hydroxy-3,5-dimethyl-phenyl)-1-m-tolyl-1,3-dihydro-indol-2-one] | ≤ 500
Cc1cc(C2(c3cc(C)c(O)c(C)c3)C(=O)N(c3ccncc3)c3ccccc32)cc(C)c1O [Example 136, 3,3-Bis-(4-hydroxy-3,5-dimethyl-phenyl)-1-pyridin-4-yl-1,3-dihydro-indol-2-one] | ≤ 500
CCOc1cccc(N2C(=O)C(c3cc(C)c(O)c(C)c3)(c3cc(C)c(O)c(C)c3)c3ccccc32)c1 [Example 137, 1-(3-Ethoxy-phenyl)-3,3-bis-(4-hydroxy-3,5-dimethyl-phenyl)-1,3-dihydro-indol-2-one] | ≤ 500
Cc1cc(C2(c3cc(C)c(O)c(C)c3)C(=O)N(c3cccc(C(C)C)c3)c3ccccc32)cc(C)c1O [Example 138, 3,3-Bis-(4-hydroxy-3,5-dimethyl-phenyl)-1-(3-isopropyl-phenyl)-1,3-dihydro-indol-2-one] | ≤ 500
COc1ccc(N2C(=O)C(c3cc(C)c(O)c(C)c3)(c3cc(C)c(O)c(C)c3)c3ccccc32)cc1OC [Example 140, 1-(3,4-Dimethoxy-phenyl)-3,3-bis-(4-hydroxy-3,5-dimethyl-phenyl)-1,3-dihydro-indol-2-one] | ≤ 500
COC(=O)c1cccc(-c2noc(CN3C(=O)C(c4cc(C)c(O)c(C)c4)(c4cc(C)c(O)c(C)c4)c4ccccc43)n2)c1 [Example 141, 3-{5-[3,3-Bis-(4-hydroxy-3,5-dimethyl-phenyl)-2-oxo-2,3-dihydro-indol-1-ylmethyl]-[1,2,4]oxadiazol-3-yl}-benzoic acid methyl ester] | ≤ 500
